Compared with `CCCCCCCCCCCc1ncc(C(=O)O)s1`, `CCCCCNC(=O)c1cnc2cccc(C)n2c1=O` is higher in melting point: 93 °C for the first, 112 to 116 °C for the second.

First: c1cc(CN2CCCCC2)cc(OCCNc2nc3ccccc3s2)c1
Second: Cc1c(NC(=O)c2ccc(-c3cccc(F)c3)cc2)ccc2cc(CN3CCCC3)cnc12
The melting point of the first is lower: 141 to 142 °C for the first, 158 to 159 °C for the second.

Compared with `O=c1[nH]c2ccc([C@H]3CC[C@H](NCCCc4ccc(F)cc4)CC3)cc2[nH]1`, `c1ccc(-c2[nH]c3ccccc3c2C2CCNCC2)cc1` is lower in melting point: 336 to 339 °C for the first, 187 to 188 °C for the second.

Compared with `OC1(C2(Cl)CC2)Cc2ncnn2C(CC(Cl)(Cl)Cl)C1` (stereo unspecified), `CCOc1cc2c(cc1O)C(=NO)CC1C2CCC2(C)C(OC(C)=O)CCC12` (stereo unspecified) is higher in melting point: 153 to 154 °C for the first, 226 to 227 °C for the second.

First: Nc1cnc(Oc2ccc(Cl)c3c2CCCC3)c(Cl)c1
Second: N#Cc1cc([N+](=O)[O-])ccc1Oc1ccc(Cl)c(Cl)c1
The melting point of the first is lower: 130 to 132 °C for the first, 154 to 155 °C for the second.

Compared with `[N-]=[N+]=C1c2ccccc2-c2ccc(F)cc21`, `COc1ccc(C(=O)c2cc3ccccc3o2)c(Cl)c1Cl` is higher in melting point: 89 to 90 °C for the first, 148 °C for the second.

First: Cc1ccc(C(=O)Nc2cccc(C(F)(F)F)c2)cc1-c1ccc2ccncc2c1
Second: CN1CC=C(c2cnn3c(-c4cccc(NC(=O)c5cccc(C(F)(F)F)c5)c4)ccnc23)CC1
The melting point of the first is lower: 157 to 159 °C for the first, 163 to 165 °C for the second.

`CCCC1(C(C)C)NC(=S)N(c2cc(Cl)cc(Cl)c2)C1=O` (stereo unspecified) and `CNC(=O)c1c(N)cc(Cl)cc1Cl` cannot be ordered by melting point: 160 °C for the first, 159 to 162 °C for the second.

First: CCCCNc1cc(CN(Cc2ccccc2)C(=O)OCC)cc(S(N)(=O)=O)c1Oc1ccccc1
Second: COC(=O)C(Cc1ccccc1)N1CC(N2C(=O)c3ccccc3C2=O)C1=O (stereo unspecified)
The melting point of the first is lower: 82 to 83 °C for the first, 153 to 156 °C for the second.

First: CCCc1c(CSc2nccc(OCC(=O)OCC)n2)ccc(C(C)=O)c1O
Second: CCOCCc1ccc(OCCN(C(=O)n2ccnc2)c2ncnc(C)c2Cl)c(C)c1
The melting point of the first is higher: 112 to 117 °C for the first, 87 to 88 °C for the second.

`O=C1CCC(c2ccc3[nH]c(-c4ccccc4)cc3c2)=NN1` and `c1ccc2c(Nc3ccc4[nH]ncc4c3)nc(-c3ccc4c(c3)CCO4)nc2c1` cannot be ordered by melting point: 270 to 275 °C for the first, 267 to 272 °C for the second.

Compared with `CCC(C(=O)c1ccc(Cl)cc1)n1ncn(-c2ccc(N3CCN(c4ccc(OC)cc4)CC3)nc2)c1=O` (stereo unspecified), `CCOc1ccc(-c2ccc3c(c2)C=C(C(=O)Nc2ccc(CN(C)C4CCC(=O)CC4)cc2)CCO3)cc1` is higher in melting point: 142 °C for the first, 146 to 148 °C for the second.

Compared with `CCc1nc2c(C)cc(C)nc2n1Cc1ccc(-c2ccccc2-c2c(N(C)C)c(=O)c2=O)cc1`, `CN(C(CCN1C(=O)c2ccccc2C1=O)C(=O)NO)S(=O)(=O)c1ccc(Oc2cccc(Cl)c2)cc1` (stereo unspecified) is lower in melting point: 140 to 142 °C for the first, 81 to 84 °C for the second.

First: COCCOc1ccc(/C=C/C(=O)O)c(OCC2CC2)c1
Second: COCCOc1cc([N+](=O)[O-])c2[nH]c(C(=O)O)cc2c1
The melting point of the first is lower: 118 to 119 °C for the first, 192 to 193 °C for the second.

First: Cc1cc2c(c3c1NC(=O)CC3)OC(CO)C2 (stereo unspecified)
Second: COc1ccc(OC)c(-c2cc(F)cc3c2OC(CN)C3)c1 (stereo unspecified)
The melting point of the first is higher: 172 to 173 °C for the first, 120 to 122 °C for the second.

Compared with `O=C(Cc1cccc2ccccc12)N[C@H](Cc1ccc(C(F)(F)F)cc1)[C@@H](O)c1ccc(F)cc1` (racemic), `Nc1cnccc1CNC(=O)C1Cc2ccccc2N1S(=O)(=O)c1ccc(-c2cccc(C(F)(F)F)c2)cc1` (stereo unspecified) is lower in melting point: 186 to 187 °C for the first, 105 to 108 °C for the second.

First: O=C(NC1CCOCC1)c1cccc(-c2cccc3oc(Cc4cccc(C(F)(F)F)c4)cc23)c1
Second: COc1cccc2c1C1(COc3cc4c(cc31)OCO4)C(=O)N2Cc1ccc(C(F)(F)F)o1 (stereo unspecified)
The melting point of the first is lower: 107 to 108 °C for the first, 149 to 153 °C for the second.

Compared with `COC(=O)C(CCO)NS(=O)(=O)c1ccc(Cl)cc1` (racemic), `CN(C(=O)c1ccc(Cl)cc1)c1ccccc1CCCC(C(=O)O)C(=O)O` is higher in melting point: 91 to 92 °C for the first, 117 to 118 °C for the second.

First: CCC1(c2ccccc2)OC(c2ccc(-c3ccc(Cl)cc3)cc2)OC1=O (stereo unspecified)
Second: COC(=O)C(NC(=O)c1ccccc1)c1ccc(-c2ccc(S)cc2)cc1 (stereo unspecified)
The melting point of the first is lower: 80 to 83 °C for the first, 150 to 152 °C for the second.

First: CC(C)=NOCc1nc2c(N)nc3cc(-c4ccccc4)cnc3c2n1CC(C)C
Second: COc1ccccc1-n1cnc2c(C(N)=O)nc(-c3cccc(O)c3)nc21
The melting point of the first is lower: 196 to 197 °C for the first, 230 to 231 °C for the second.

First: CC(C)(C)CN1C(=O)[C@@H](CC(=O)Nc2cccc(-c3nnn[nH]3)c2)O[C@H](c2ccccc2Cl)c2cc(Cl)ccc21 (relative stereo)
Second: CN(C)CCOc1cc2c(Nc3ccc(Oc4ccccc4)cc3)c(C#N)cnc2cn1
The melting point of the first is higher: 218 to 220 °C for the first, 159 to 161 °C for the second.

Compared with `Cn1nc(C(F)(F)F)cc1-c1ccc(F)cc1F`, `Cc1nnsc1C(=O)Nc1ccc(-n2nc(C(F)(F)F)c(Cl)c2C2CC2)c(F)c1` is higher in melting point: 37 to 38 °C for the first, 143 to 147 °C for the second.

First: Cn1cc(-c2cccc(C#N)c2)c(=O)c(-c2cccc(C#N)c2)c1
Second: CCn1c2ccccc2c2cc3cccc(C=O)c3cc21
The melting point of the first is higher: 322 to 327 °C for the first, 130 to 133 °C for the second.

First: CCOC(=O)c1ccc(N2CSCC2=O)cc1
Second: CCOC(=O)c1cc(=O)c2cc(N3CCOCC3)c(=O)ccc2n1C
The melting point of the first is lower: 68 to 69 °C for the first, 170 to 172 °C for the second.

Compared with `O=C(O)CCc1ccc(CCNC(=S)Cc2ccccc2)cc1`, `COc1ccc(C[C@H](NC(=O)[C@H](CC(C)C)NC(=O)OCc2ccccc2)C(=O)CSC)cc1` is lower in melting point: 210 to 212 °C for the first, 100 to 101 °C for the second.

Compared with `CC(C)(C)c1cccc(S(=O)(=O)n2c(CCCC(=O)O)cc3cc(C(F)(F)F)ccc32)c1`, `CCCCCS(=O)(=O)NC(=O)/C=C/c1ccc(OC(C)C)cc1Oc1ncc(C(F)(F)F)cc1Cl` is higher in melting point: 135 to 141 °C for the first, 142 to 144 °C for the second.

Compared with `O=C1NC(=C2CCCCC2)Sc2ccccc21`, `Cc1c2n(c3ccccc13)CCC(Br)C2=O` (stereo unspecified) is lower in melting point: 146 to 147 °C for the first, 126 to 128 °C for the second.

Compared with `COc1ccccc1Oc1c(O)nc(O)nc1O`, `COc1ccccc1OCC1NC(C)(C)C(C(=O)O)S1` (stereo unspecified) is lower in melting point: 202 to 204 °C for the first, 136 to 138 °C for the second.

First: COc1ccc(C2OC2C(N)=O)cc1 (stereo unspecified)
Second: COc1ccc(NN=C(Sc2ccc(CF)cc2)C(C)=O)cc1
The melting point of the first is higher: 142 to 144 °C for the first, 103 to 104 °C for the second.

First: CC(Sc1nc(N)c(Br)c(Cl)n1)c1cc2ccccc2cn1 (stereo unspecified)
Second: CN1CCc2c(cc3ccccc3c2N)C1
The melting point of the first is higher: 173 to 174 °C for the first, 97 to 99 °C for the second.

Compared with `COc1ccc(-c2nc3cc(Cl)ccc3o2)cc1OC`, `COC=C(C(=O)OC)N(C)c1cccc(-c2ccc(Cl)cc2)n1` is lower in melting point: 142 to 145 °C for the first, 135 °C for the second.

First: COc1cc2c(cc1OC)C(=O)C(=NO)C2
Second: COc1cc(Nc2nccc(-c3ccc(NC4CCCCC4O)nc3)n2)cc(OC)c1OC (stereo unspecified)
The melting point of the first is higher: 240 °C for the first, 147 to 148 °C for the second.

First: CC(C)(C)OC(=O)c1ncn2c1[C@@H]1CCCN1C(=O)c1cc(N)ccc1-2
Second: Cc1cc(Br)ccc1-n1c(CF)nc2ccc(N)cc2c1=O
The melting point of the first is higher: 223 to 224 °C for the first, 194 to 196 °C for the second.

First: COc1ccc(NS(=O)(=O)c2ccc(OC)c3c2c2ccccc2n3C=O)cc1
Second: COc1ccc(S(=O)(=O)N2CCC3(C=Cc4ccccc43)CC2)cc1
The melting point of the first is higher: 190 to 192 °C for the first, 181 to 183 °C for the second.

Compared with `O=C(NN=c1[nH]nc(Cl)c2ccccc12)c1ccccc1`, `O=C(Cn1c2c(c3ccccc31)CCNCC2)Nc1cccnc1` is lower in melting point: 162 °C for the first, 138 to 140 °C for the second.

First: NS(=O)(=O)c1ccn2c1C(=O)OCC2
Second: CC1=CC(C)(C)N2C(=O)C(=O)c3cccc1c32
The melting point of the first is higher: 204 to 206 °C for the first, 170 to 176 °C for the second.

First: NNC(=O)NCCSSc1ccccn1
Second: CC1CCC(=NNc2ccccc2)c2nccc(=O)n21 (stereo unspecified)
The melting point of the first is lower: 105 to 107 °C for the first, 163 to 164 °C for the second.

Compared with `COc1ccc(CCN2C=CC=C3C2=Nc2ccccc2OS3(=O)=O)cc1O`, `COc1cc(/C=C/C(=O)NCCN2CCC(c3c[nH]c4ccccc34)CC2)ccc1O` is lower in melting point: 158 to 160 °C for the first, 115 to 135 °C for the second.

First: Cc1cncc(C)c1-c1c(C)cc(OS(=O)(=O)C(F)(F)F)cc1C
Second: CS(=O)(=O)Oc1cc(N)c(F)cc1Cl
The melting point of the first is lower: 68 to 69 °C for the first, 79 to 80 °C for the second.

First: COc1ccc(/C(=C\C=C\C(=O)Oc2ccc([N+](=O)[O-])cc2)C2CC2)cc1
Second: [N-]=[N+]=NCc1cccc(C(=O)c2ccc(Cl)cc2)c1
The melting point of the first is higher: 111 to 112 °C for the first, 43 to 45 °C for the second.

Compared with `Cc1ncsc1C(C)(O)c1cccs1` (stereo unspecified), `Clc1nc(-c2ccccc2)no1` is lower in melting point: 146 to 148 °C for the first, 40 to 42 °C for the second.

Compared with `CNC1CCc2[nH]c3c(F)cc(F)cc3c2C1` (stereo unspecified), `O=[N+]([O-])c1cc(N=c2sc(=S)n3n2CCCC3)c(F)cc1Cl` is higher in melting point: 135 to 138 °C for the first, 171 to 173 °C for the second.

First: O=C(Cl)N1CCC(Oc2ccc(F)c(Cl)c2)C1 (stereo unspecified)
Second: Cc1cc(N2CCN(c3c(C)c(C)c4c(c3C)CC(C)(C)O4)CC2)ccc1F
The melting point of the first is lower: 63 to 65 °C for the first, 143 to 145 °C for the second.

First: COc1ccc2nc(NC(=O)C(CC3CCCC3)c3ccc(S(=O)(=O)N4CCOCC4)cc3)sc2n1 (stereo unspecified)
Second: CCCC1(S(=O)(=O)CCCN2CCC(N3Cc4ccccc4C3=O)CC2)c2ccccc2-c2ccccc21
The melting point of the first is higher: 120 to 123 °C for the first, 83 to 86 °C for the second.

First: Clc1ccc2snc(-c3ccc(C4=NCCN4)cc3)c2c1
Second: CCc1nnc2cc(C)c(-c3ccc(C(N)=O)cc3)nn12
The melting point of the first is lower: 195 °C for the first, 210 to 213 °C for the second.

Compared with `COC(=O)C(C(=O)O)=C1SC=CS1`, `C#CCOC(=O)c1ccc(Br)s1` is higher in melting point: 48 to 51 °C for the first, 65 to 68 °C for the second.

First: CC(CCCC(C)(C)O)C1CC(=O)C2=C3CCC4CC(O)CCC4(C)C3CCC21C (stereo unspecified)
Second: CCCCC1(CCCC)CCc2c(OCc3ccc4ccccc4n3)ccc(Cl)c2C1O (stereo unspecified)
The melting point of the first is higher: 177 to 179 °C for the first, 142 to 144 °C for the second.

First: Oc1nc2nc(SCc3ccccc3)nn2c(O)c1-c1c(F)cc(F)cc1F
Second: BrCc1cccc2c(-c3ccccc3)c(Br)oc12
The melting point of the first is higher: 273 °C for the first, 135 to 138 °C for the second.

First: c1ccc(OC(Oc2ccccc2)Oc2c3ccccc3cc3ccccc23)cc1
Second: CC(C)c1cccc(C(C)C)c1NC(=O)Nc1ccc(Oc2ccc3nc(COc4ccc(CC5SC(=O)NC5=O)cc4)n(C)c3c2)cc1 (stereo unspecified)
The melting point of the first is lower: 90 to 92 °C for the first, 222 to 225 °C for the second.

Compared with `O=C(O)C12C3C4C5C3C1C5C42` (stereo unspecified), `COC(=O)c1ccc2c(c1SCCCl)Cc1ccccc1CO2` is lower in melting point: 154 to 155 °C for the first, 100 °C for the second.

Compound `CC(C)(SN=O)C1COC(=O)N1` (stereo unspecified) has a melting point of 65 °C.

Reference: a melting point compilation (Tetko et al.; mined from patent text by program, amines drawn as free bases though some values may be those of a salt)
